The source of these data is patent publication US9656963B2 (BRISTOL-MYERS SQUIBB COMPANY, priority 2012, dated 2017).

Structures are written as SMILES.

The term EC50 denotes the concentration giving half of the maximal effect.

T1 sequence (O14842 whole entry): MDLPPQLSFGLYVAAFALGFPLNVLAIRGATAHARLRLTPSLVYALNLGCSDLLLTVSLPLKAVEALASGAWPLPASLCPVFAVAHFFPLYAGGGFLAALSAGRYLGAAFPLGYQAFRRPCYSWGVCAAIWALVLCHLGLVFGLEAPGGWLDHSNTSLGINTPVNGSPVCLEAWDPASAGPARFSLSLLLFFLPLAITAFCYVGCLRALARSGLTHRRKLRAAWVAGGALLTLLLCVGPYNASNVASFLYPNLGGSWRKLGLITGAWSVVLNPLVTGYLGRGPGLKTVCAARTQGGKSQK

The experiment has as its target T1, hGPR40 (Homo sapiens, UniProt O14842).
T1 construct: 3x FLAG; expressed in transfected cells
Kind of experiment: FDSS-Based Intracellular Calcium Assay. The format is cell-based. The following applies: cells expressing GPR40, intracellular Ca2+ response. The procedure, abridged: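 Flag-tagged GPR40-expressing cells plated overnight in serum-free, phenol red-free DMEM. Compounds added from DMSO stocks, diluted in assay buffer and added as 3x solution. Intracellular Ca^2+ flux read by fluorescence on an FDSS reader.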
As to `COc1ccc(F)c(-c2ccc(Cc3ccc(N4N=C(c5ccccc5)C(C)C4CC(=O)O)cc3)c(C)c2)c1` (single isomer, unassigned) [Example 59, Isomer 1, 2-(1-(4-((2′-fluoro-5′-methoxy-3-methyl-[1,1′-biphenyl]-4-yl)methyl)phenyl)-4-methyl-3-phenyl-4,5-dihydro-1H-pyrazol-5-yl)acetic acid], the concentration for a half-maximal effect (EC50) came out at 6.47 µM.
As for `COc1ccc(F)c(-c2ccc(Cc3ccc(N4N=C(C(F)(F)F)CC4CC(=O)O)cc3)cc2C)c1` (single isomer, unassigned) [Example 22, Isomer 2, 2-(1-(4-((2′-fluoro-5′-methoxy-2-methylbiphenyl-4-yl)methyl)phenyl)-3-(trifluoromethyl)-4,5-dihydro-1H-pyrazol-5-yl)acetic acid], the figure is 0.35 µM; as for `COc1cc(-c2ccc(Cc3ccc(N4N=C(C(F)(F)F)CC4CC(=O)O)cc3)c(C)c2)c(F)cn1` (single isomer, unassigned) [Example 27, Isomer 1, 2-(1-(4-(4-(5-fluoro-2-methoxypyridin-4-yl)-2-methylbenzyl)phenyl)-3-(trifluoromethyl)-4,5-dihydro-1H-pyrazol-5-yl)acetic acid], 0.36 µM.
As for `COc1ccc(F)c(-c2ccc(Oc3ccc(N4N=C(c5ncco5)CC4CC(=O)O)cc3)c(C)c2)c1` (single isomer, unassigned) [Example 8, Isomer 2, 2-(1-(4-(2′-fluoro-5′-methoxy-3-methylbiphenyl-4-yloxy)phenyl)-3-(oxazol-2-yl)-4,5-dihydro-1H-pyrazol-5-yl)acetic acid], the figure is 1.16 µM; as for `COc1ccc(F)c(-c2ccc(Cc3ccc(N4N=C(c5cccc(Cl)c5)[C@@H](C)[C@@H]4CC(=O)O)cc3)c(C)c2)c1` (single isomer, unassigned) [Example 68, isomer 1], 0.015 µM.
The result for `COc1ccc(F)c(-c2ccc(Cc3ccc(N4N=C(C(F)(F)F)C(C(C)C)C4CC(=O)O)cc3)c(C)c2)c1` (single isomer, unassigned) [Example 45, Isomer 2, 2-(1-(4-((2′-fluoro-5′-methoxy-3-methylbiphenyl-4-yl)methyl)phenyl)-4-isopropyl-3-(trifluoromethyl)-4,5-dihydro-1H-pyrazol-5-yl)acetic acid] reads 0.07 µM; that for `N#CC1=NN(c2ccc(OCc3ccc(Cl)cc3Cl)cc2)C(CC(=O)O)C1` (racemic) [Example 33, 2-(3-cyano-1-(4-(2,4-dichlorobenzyloxy)phenyl)-4,5-dihydro-1H-pyrazol-5-yl)acetic acid], 0.3 µM.
In the case of `Cc1nc(-c2ccccc2)ncc1Cc1ccc(N2N=C(C(F)(F)F)[C@@H](C)[C@@H]2CC(=O)O)cc1` [Example 58, 2-((4S,5S)-4-methyl-1-(4-((4-methyl-2-phenylpyrimidin-5-yl)methyl)phenyl)-3-(trifluoromethyl)-4,5-dihydro-1H-pyrazol-5-yl)acetic acid], the concentration for a half-maximal effect (EC50) came out at 4.29 µM.
`COc1ccc(F)c(-c2ccc(Cc3ccc(N4N=C(c5cccc(Cl)c5)[C@@H](C)[C@@H]4CC(=O)O)cc3)c(C)c2)c1` (single isomer, unassigned) [Example 68, isomer 2]: the EC50 was determined as 8.46 µM.
The result for `COc1ccc(F)c(-c2cc(C)c(Oc3ccc(N4N=C(C(F)(F)F)CC4CC(=O)O)cc3)cc2F)c1` (racemic) [Example 12, 2-(1-(4-(2,2′-difluoro-5′-methoxy-5-methylbiphenyl-4-yloxy)phenyl)-3-(trifluoromethyl)-4,5-dihydro-1H-pyrazol-5-yl)acetic acid] reads 0.51 µM; that for `COc1ccc(F)c(-c2ccc(Cc3ccc(N4N=C(C(F)(F)F)CC4CC(=O)O)cc3)c(Cl)c2)c1` (single isomer, unassigned) [Example 20, Isomer 1, 2-(1-(4-((3-chloro-2′-fluoro-5′-methoxybiphenyl-4-yl)methyl)phenyl)-3-(trifluoromethyl)-4,5-dihydro-1H-pyrazol-5-yl)acetic acid], 0.47 µM.
The result for `COc1ccc(F)c(-c2ccc(Oc3ccc(N4N=C(C(F)(F)F)CC4CC(=O)O)cc3)c(C)c2)c1` (single isomer, unassigned) [Example 14, Isomer 2, 2-(1-(4-(2′-fluoro-5′-methoxy-3-methylbiphenyl-4-yloxy)phenyl)-3-(trifluoromethyl)-4,5-dihydro-1H-pyrazol-5-yl)acetic acid] reads 0.16 µM.
As for `COc1ccc(F)c(-c2ccc(Cc3ccc(N4N=C(C(F)(F)F)C(C)(C)C4CC(=O)O)cc3)c(C)c2)c1` (single isomer, unassigned) [Example 50, Isomer 2, 2-(1-(4-((2′-fluoro-5′-methoxy-3-methylbiphenyl-4-yl)methyl)phenyl)-4,4-dimethyl-3-(trifluoromethyl)-4,5-dihydro-1H-pyrazol-5-yl)acetic acid], the figure is 1.34 µM; as for `COc1ccc(F)c(-c2ccc(Cc3ccc(N4N=C(c5ccc(F)cc5)[C@@H](C)[C@@H]4CC(=O)O)cc3)c(C)c2)c1` (single isomer, unassigned) [Example 67, isomer 2], 0.8 µM; as for `Cc1cc(Oc2ccc(N3N=C(C#N)CC3CC(=O)O)cc2)c(C)cc1Br` (racemic) [Example 31, 2-(1-(4-(4-bromo-2,5-dimethylphenoxy)phenyl)-3-cyano-4,5-dihydro-1H-pyrazol-5-yl)acetic acid], 0.36 µM.
As for `Cc1cc(-c2ccncc2)ccc1Cc1ccc(N2N=C(C(F)(F)F)[C@@H](C)[C@@H]2CC(=O)O)cc1` [Example 78, 2-((4S,5S)-4-methyl-1-(4-(2-methyl-4-(pyridin-4-yl)benzyl)phenyl)-3-(trifluoromethyl)-4,5-dihydro-1H-pyrazol-5-yl)acetic acid], the EC50 is 8.33 µM.
The result for `COc1cccc(-c2ccc(Oc3ccc(N4N=C(C(F)(F)F)CC4CC(=O)O)cc3)c(C)c2)c1` (single isomer, unassigned) [Example 9, Isomer 1, 2-(1-(4-(3′-methoxy-3-methylbiphenyl-4-yloxy)phenyl)-3-(trifluoromethyl)-4,5-dihydro-1H-pyrazol-5-yl)acetic acid] reads 0.19 µM; that for `COc1ccc(F)c(-c2ccc(Cc3ccc(N4N=C(C(F)(F)F)C(C5CC5)C4CC(=O)O)cc3)c(C)c2)c1` (single isomer, unassigned) [Example 43, Isomer 1, 2-(4-cyclopropyl-1-(4-((2′-fluoro-5′-methoxy-3-methylbiphenyl-4-yl)methyl)phenyl)-3-(trifluoromethyl)-4,5-dihydro-1H-pyrazol-5-yl)acetic acid], 3.28 µM; that for `Cc1ccccc1Oc1ccc(N2N=C(C(=O)N(C)C)CC2CC(=O)O)cc1` (racemic) [Example 6, 2-(3-(dimethylcarbamoyl)-1-(4-(o-tolyloxy)phenyl)-4,5-dihydro-1H-pyrazol-5-yl)acetic acid], 1.81 µM.
The result for `COc1ccc(OC)c(-c2ccc(Cc3ccc(N4N=C(C#N)CC4CC(=O)O)cc3)c(C)c2)c1` (single isomer, unassigned) [Example 49, Isomer 2, 2-(3-cyano-1-(4-((2′,5′-dimethoxy-3-methylbiphenyl-4-yl)methyl)phenyl)-4,5-dihydro-1H-pyrazol-5-yl)acetic acid] reads 3.11 µM; that for `COc1ccc(F)c(-c2ccc(Cc3ccc(N4N=C(c5ccccn5)C(C)C4CC(=O)O)cc3)c(C)c2)c1` (single isomer, unassigned) [example 62, isomer 2, 2-(1-(4-((2′-fluoro-5′-methoxy-3-methylbiphenyl-4-yl)methyl)phenyl)-4-methyl-3-(pyridin-2-yl)-4,5-dihydro-1H-pyrazol-5-yl)acetic acid], 0.063 µM.
In the case of `N#CC1=NN(c2ccc(Oc3cccc(Cl)c3)cc2)C(CC(=O)O)C1` (racemic) [Example 4, 2-(1-(4-(3-chlorophenoxy)phenyl)-3-cyano-4,5-dihydro-1H-pyrazol-5-yl)acetic acid], the EC50 is 0.22 µM.
